# Measurements published in patent publication US7964613B2 (Asahi Kasei Pharma Corporation, priority 2007, dated 2011).
# Counter-ions that a name gives are not always drawn.
# Legend:
# intraocular pressure [1] = experiment: Rabbit intraocular pressure reduction enhancing action, Test Example 7-1 (combination use); assay type: in vivo, Japanese white rabbit; conditions: 19-1 compound 0.01 weight % aqueous solution 50 μL, left-right eye difference at 2, 4, 6 hours, six rabbits
# Method: However, the effect is not limited to the 19-1 compound, and the ophthalmic solution concentration of the 19-1 compound is not limited to those used in this test example. Moreover, as for the test compound used for combination use, similar effect can be obtained also with the compounds of the present invention represented with the example numbers mentioned in Test Example 3.
# As a test compound, the 19-1 compound was dissolved in physiological saline, and the solution was neutralized by addition of sodium hydroxide (pH 7.0 to 8.0) to prepare a 0.01 weight % aqueous solution (19-1 compound aqueous solution). As the drugs for combination use, isopropyl unoprostone (trade name: Rescula, Santen Pharmaceutical) was used as a prostaglandin-related drug, and brinzolamide hydrochloride (trade name: Azopt, Alcon Japan) was used as […], as the marketed formulations as they were.
# A Japanese white rabbit having a body weight of about 2 kg was placed in a positioner and naturalized for one week before the experiment. An opthalmologic local anesthesant (Benoxil) was administered to both eyes, and then intraocular pressure before instillation was measured by using a tonometer (Classic 30, Solan). A test aqueous solution or the drug for combination use was administered to the left eye, and the right eye was not treated (control eye). The test groups consisted of (1) control group, (2) group instilled only with the 19-1 compound aqueous solution (single drug group 1), (3) group instilled only with the drug for combination use (single drug group 2), and (4) group instilled with the drug for combination use and the 19-1 compound aqueous solution (combination use group), and six rabbits were used for each group. As for the rabbits of these groups, 50 μL of physiological saline was first instilled to the control group, single drug group 1, and single drug group 2, and the drug for combination use was first instilled in the same volume to the combination use group. […] The intraocular pressure thereafter was measured for each group 2, 4 and 6 hours after the second administration of the test compound, and the difference of the measured values for the left and right eyes at each measurement time was considered an intraocular pressure reduction value of each group. The largest difference of the intraocular pressure values for the left and right eyes among those of the measured values of the measurement times was considered the maximum intraocular pressure reduction value (max ? IOP) of each drug group.
# [2] = tested on: myosin regulatory light chain of mesenteric artery; conditions: cited from earlier work
# intraocular pressure [3] = experiment: Rabbit intraocular pressure reduction enhancing action, Test Example 7-2 (combination use with timolol maleate); assay type: in vivo, Japanese white rabbit; conditions: Table 6; 19-1 compound 0.01 weight % aqueous solution 50 μL, Timoptol 50 μL; difference relative to control group at 1, 2, 4 hours; 12 rabbits
# Method: As a test compound, the 19-1 compound was dissolved in physiological saline, and the solution was neutralized by addition of sodium hydroxide (pH 7.0 to 8.0) to prepare a 0.01 weight % aqueous solution (19-1 compound aqueous solution). As a drug for combination use, timolol maleate (trade name: Timoptol, Santen Pharmaceutical) was used as an adrenergic receptor β blocker, as the marketed formulation as it was.
# A Japanese white rabbit having a body weight of about 2 kg was placed in a positioner and naturalized for one week before the experiment. An opthalmologic local anesthesant (Benoxil) was administered to both eyes, and then intraocular pressure before instillation was measured by using a tonometer (Classic 30, Solan). […] The intraocular pressure thereafter was measured for each group 1, 2 and 4 hours after the second administration of the test compound, and the difference of the measured values at each measurement time for the each group and the control group was considered an intraocular pressure reduction value of each group. The largest difference of the intraocular pressure values relative to the control group among those of the measured values of the measurement times was considered the maximum intraocular pressure reduction value (max ? IOP) of each drug group.
smiles,measurement,setting,value
"CCCCCCCC(=O)CC[C@@H]1[C@@H](C/C=C\CCCC(=O)OC(C)C)[C@@H](O)C[C@H]1O [isopropyl unoprostone, reference compound]",Max IOP (maximum intraocular pressure reduction value),"intraocular pressure [1]; Table 5, Rescula 50 μL",4.4 mmHg
"CCN[C@H]1CN(CCCOC)S(=O)(=O)c2sc(S(N)(=O)=O)cc21 [brinzolamide hydrochloride, reference compound]",Max IOP (maximum intraocular pressure reduction value),"intraocular pressure [1]; Table 4, Azopt 50 μL",2.3 mmHg
"CC1CNCCN1S(=O)(=O)c1cccc2cnccc12 (stereo not shown) [Example H-7, 1-(5-isoquinolinesulfonyl)-2-methylpiperazine]",inhibition of phosphorylation of myosin regulatory light chain,[2],inhibits the phosphorylation of myosin regulatory light chain of mesenteric artery
"CC(C)(C)NC[C@H](O)COc1nsnc1N1CCOCC1 [timolol maleate, reference compound]",Max IOP (maximum intraocular pressure reduction value),intraocular pressure [3],1.9 mmHg
